Test results from patent US7078382B1, “Modulation of eNOS activity and therapeutic uses thereof” (Genentech, Inc., priority 1999, dated 2006).
Entries after “also recorded” stand apart in the source; their conditions may differ.

Key:
eNOS expression = eNOS expression by Western blot in ACE cells; format: cell-based, bovine; conditions: for eNOS expression, time course: 0-5 days, VEGF alone or co-incubated with L-NAME (2 mM) or SNAP; for effect of signalling inhibitors on VEGF-induced eNOS expression: with 500 pM rhVEGF; for effect on VEGF-induced eNOS expression, KDR tyrosine kinase inhibitor: co-incubated with 500 pM rhVEGF; for eNOS expression with angiogenic factors / eNOS expression with KDR-specific VEGF variants: 500 pM; for eNOS expression with VEGF forms and receptor-selective variants: equal concentrations, two days
Procedure: At the end of incubation, total cell lysates were prepared, and eNOS protein levels were determined by Western blot analysis.
Bovine adrenal cortex capillary endothelial cells (ACE) were prepared and maintained as previously described (Ferrara et.al., 1989 Biochem. Biophys. Res. Commun. 161:851–858). Briefly, cells were plated onto 6-well tissue culture plates (Costar) and grown in low glucose Dulbecco's modified Eagle's medium, supplemented with 2 mM […] (Life Technologies), 10% bovine calf serum (HyClone Lab., Inc.) and 100 μg/ml Penicillin/Streptomycin (Life Technologies). ACE cells were used between passages 4 and 8.
Medium was changed every 24 hours.
The methods for cell lysis and Western blot (WB) have been described in Shen et al., 1998 J. Biol. Chem. 273:29979–29985. A monoclonal anti-eNOS antibody was used at 1:2500 to probe eNOS protein. A secondary antibody conjugated with horseradish peroxidase (1:2500) (Zymed) and an enhanced chemiluminescent kit (Amershal Pharmacia Biotech) were used to visualize the eNOS immunoreactive bands. Multiple exposures of films were obtained to determine the optical exposure time. The protein bands were scanned by a densitometer and the relative intensities were quantified using IMAGEQUANT® software (Molecular Dynamics).
(§1) Confluent ACE cells were incubated with 500 pM rhVEGF. Total cell lysates were prepared as described above. Equal amounts of protein were denatured under reducing conditions and separated in a 10% Novex mini gel and transferred to PVDF membrane. eNOS protein signals were visualized by ECL and quantified using densitometry.

Flt-1 receptor [1] = test: Flt-1 receptor binding ELISA (inhibition of biotinylated native VEGF binding to Flt-IgG); conditions: first figure of the cell, read-out: Binding to FLT-1 Receptor, concentration at midpoint absorbance
Chain of Flt-1 receptor (P17948 27-327 limits assumed): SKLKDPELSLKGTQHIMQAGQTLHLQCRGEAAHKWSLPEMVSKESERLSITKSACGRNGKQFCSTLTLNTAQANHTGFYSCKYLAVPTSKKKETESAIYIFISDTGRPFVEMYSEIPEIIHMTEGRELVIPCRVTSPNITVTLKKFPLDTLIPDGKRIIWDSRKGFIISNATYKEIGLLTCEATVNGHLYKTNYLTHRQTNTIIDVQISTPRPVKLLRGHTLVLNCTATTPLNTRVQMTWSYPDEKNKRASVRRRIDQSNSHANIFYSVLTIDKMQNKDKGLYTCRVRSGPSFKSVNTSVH
Procedure: Receptor binding assays were performed in 96-well immunoplates (Maxisorp, Nunc-Immunoplate, Nalge Nunc International, Rochester, N.Y.). Each well was coated with 100 μl of a solution containing 2 μg/ml of rabbit F(ab′)2 to human IgG Fc (Jackson ImmunoResearch, West Grove, Pa.) in 50 mM carbonate buffer at pH 9.6 and incubated at 4° C. overnight. The supernatant was then discarded, the wells were washed three times in washing buffer (0.05% Tween 20 in PBS), and the plate was blocked (150 μl per well) with block buffer (0.5% BSA, 0.01% thimerosal in PBS) at room temperature for one hour. The supernatant was discarded, and the wells were washed.
The wells were filled with 100 μl of a solution containing Flt-IgG (a chimeric Flt-human Fc molecule) at 50 ng/ml in assay buffer (0.5% BSA, 0.05% Tween 20 in PBS). The wells were incubated at room temperature for 1 hour and then washed three times in wash buffer (0.05% Tween 20 in PBS).
Aliquots of the mixture (100 μl) were added to the precoated microtiter wells and the plate was incubated for 2 hours at room temperature. […] Absorbance was read at 450 nm on a Vmax plate reader (Molecular Devices, Menlo Park, Calif.).
Titration curves were fit with a four-parameter nonlinear regression curve-fitting program (KaleidaGraph, Synergy Software, Reading, Pa.).

PAE/FLT-1 cells = conditions: 500 pM rhVEGF, 2 days
Procedure: Porcine aorta endothelial (PAE) cells, and receptor transfected PAE cells (PAE/KDR and PAE/FLT-1) were provided by Napoleone Ferrara (Genentech, Inc.) and cultured in Ham's F-12 medium containing 10% FBS (for PAE), or plus 250 μg/ml G480 (for PAE/KDR and PAE/FLT-1).
PAE, PAE/KDR and PAE/Flt-1 cells were incubated with or without 500 pM rhVEGF for 2 days. eNOS was detected as described above for Example 1. Other materials and methods used in this study were as described above for Example 1.

PKC = conditions: ACE cells, rhVEGF 500 pM, 10 minutes
Procedure: Cytosolic and membrane fractions were prepared to investigate the re-distribution or PKC isoforms. […] (See FIG. 5A).

eNOS = test: Association of proteins with eNOS (immunoprecipitation, Western blot) in endothelial cells; conditions: VEGF 1-60 minutes
KDR receptor = target: T1, KDR receptor (Homo sapiens, UniProt P35968); test: RIA binding assay, KDR receptor
T1 construct: host or cells: CHO cells
T1 sequence (P35968 20-1356): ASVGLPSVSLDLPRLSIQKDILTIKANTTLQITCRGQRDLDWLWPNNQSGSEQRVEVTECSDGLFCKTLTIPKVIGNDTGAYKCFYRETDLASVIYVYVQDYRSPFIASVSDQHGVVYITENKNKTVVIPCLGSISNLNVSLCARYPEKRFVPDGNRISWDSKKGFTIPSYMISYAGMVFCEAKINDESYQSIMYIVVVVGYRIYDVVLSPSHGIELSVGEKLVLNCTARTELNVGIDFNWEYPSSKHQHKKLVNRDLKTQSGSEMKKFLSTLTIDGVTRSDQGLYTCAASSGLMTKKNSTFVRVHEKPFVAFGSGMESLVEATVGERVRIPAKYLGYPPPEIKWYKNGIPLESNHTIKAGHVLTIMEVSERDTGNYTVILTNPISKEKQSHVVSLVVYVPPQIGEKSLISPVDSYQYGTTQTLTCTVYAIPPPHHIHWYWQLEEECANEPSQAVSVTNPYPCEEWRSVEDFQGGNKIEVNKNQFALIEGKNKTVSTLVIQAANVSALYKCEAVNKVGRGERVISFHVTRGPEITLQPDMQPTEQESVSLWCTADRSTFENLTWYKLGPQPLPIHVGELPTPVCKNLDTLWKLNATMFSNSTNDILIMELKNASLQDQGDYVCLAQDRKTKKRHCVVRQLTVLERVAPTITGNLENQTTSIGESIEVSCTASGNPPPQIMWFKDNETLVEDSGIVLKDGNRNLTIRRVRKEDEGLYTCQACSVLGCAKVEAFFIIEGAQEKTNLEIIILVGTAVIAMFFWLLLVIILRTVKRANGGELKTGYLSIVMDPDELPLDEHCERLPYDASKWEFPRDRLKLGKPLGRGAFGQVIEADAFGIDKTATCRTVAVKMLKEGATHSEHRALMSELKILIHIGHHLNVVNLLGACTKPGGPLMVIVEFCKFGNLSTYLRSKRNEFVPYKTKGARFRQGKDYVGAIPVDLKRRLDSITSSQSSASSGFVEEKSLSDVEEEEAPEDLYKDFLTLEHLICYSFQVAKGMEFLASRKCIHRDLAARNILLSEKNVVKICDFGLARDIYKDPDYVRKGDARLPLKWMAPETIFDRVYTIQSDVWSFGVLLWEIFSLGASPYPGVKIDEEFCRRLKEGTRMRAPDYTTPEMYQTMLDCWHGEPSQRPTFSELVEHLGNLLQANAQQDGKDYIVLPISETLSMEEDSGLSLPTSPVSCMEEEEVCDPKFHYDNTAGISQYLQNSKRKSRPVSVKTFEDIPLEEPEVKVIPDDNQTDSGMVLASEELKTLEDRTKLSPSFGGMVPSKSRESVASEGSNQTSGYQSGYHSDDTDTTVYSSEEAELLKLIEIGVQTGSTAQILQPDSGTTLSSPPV

eNOS activity = conditions: ACE cells
Procedure: as §1

[2] = coronary artery disease patients, intracoronary or intravenous infusion at 0.05 microgram/Kg body weight/minute
From the text: In one aspect, the invention provides methods for treating a NO associated disorder or condition such as hypertension, diabetes, thrombosis, angina, heart failure or atherosclerosis.

[3] = angina patients, prolonged time point, early results
From the text: Luscher TF (1992) Br. J. Clin. Pharmacol. 34 Suppl. 1:29S–35S.

Flt-1 receptor [4] = target: Flt-1 receptor (Homo sapiens, UniProt P17948); test: RIA binding assay, FLT-1 receptor
Chain of Flt-1 receptor (Homo sapiens, UniProt P17948) (P17948 27-1338): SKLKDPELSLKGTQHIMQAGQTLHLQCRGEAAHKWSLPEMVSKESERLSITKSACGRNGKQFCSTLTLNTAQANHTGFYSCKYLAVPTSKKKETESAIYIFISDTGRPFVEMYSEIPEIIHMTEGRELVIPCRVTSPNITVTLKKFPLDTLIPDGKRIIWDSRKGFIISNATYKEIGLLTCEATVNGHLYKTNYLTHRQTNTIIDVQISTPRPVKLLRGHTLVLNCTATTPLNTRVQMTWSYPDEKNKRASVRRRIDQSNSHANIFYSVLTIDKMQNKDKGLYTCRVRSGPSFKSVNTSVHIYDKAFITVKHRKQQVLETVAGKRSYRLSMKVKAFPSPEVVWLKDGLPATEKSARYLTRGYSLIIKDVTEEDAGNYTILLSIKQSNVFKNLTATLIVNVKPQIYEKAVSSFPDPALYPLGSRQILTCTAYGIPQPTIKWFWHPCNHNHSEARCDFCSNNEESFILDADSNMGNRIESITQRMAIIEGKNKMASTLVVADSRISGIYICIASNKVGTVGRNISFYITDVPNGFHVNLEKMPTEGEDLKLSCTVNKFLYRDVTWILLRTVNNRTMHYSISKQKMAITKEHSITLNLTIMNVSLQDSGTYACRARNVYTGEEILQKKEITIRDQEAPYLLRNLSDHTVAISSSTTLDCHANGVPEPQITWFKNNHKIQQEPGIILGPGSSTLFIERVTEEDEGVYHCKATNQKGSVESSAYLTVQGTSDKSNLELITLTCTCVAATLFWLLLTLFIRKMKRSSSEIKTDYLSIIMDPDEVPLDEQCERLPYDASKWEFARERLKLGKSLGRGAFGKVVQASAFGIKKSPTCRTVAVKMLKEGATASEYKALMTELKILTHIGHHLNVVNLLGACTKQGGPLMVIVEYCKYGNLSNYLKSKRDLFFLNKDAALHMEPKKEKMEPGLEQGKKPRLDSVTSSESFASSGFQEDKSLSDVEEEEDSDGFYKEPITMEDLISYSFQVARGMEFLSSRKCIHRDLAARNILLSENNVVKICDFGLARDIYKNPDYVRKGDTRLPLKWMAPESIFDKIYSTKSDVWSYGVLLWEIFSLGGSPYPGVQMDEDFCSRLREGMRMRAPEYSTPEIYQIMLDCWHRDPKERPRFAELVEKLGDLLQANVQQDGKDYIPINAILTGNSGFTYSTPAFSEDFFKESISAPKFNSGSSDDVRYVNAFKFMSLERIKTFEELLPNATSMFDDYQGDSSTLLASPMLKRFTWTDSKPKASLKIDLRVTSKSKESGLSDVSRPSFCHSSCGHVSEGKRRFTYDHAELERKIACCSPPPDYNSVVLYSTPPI
From the text: The results are shown below in Table 6.

COC(=O)[C@@H](N)CCCNC(=N)N[N+](=O)[O-] [L-NAME, L-N^G-Nitroarginine methyl ester, reference compound]
eNOS expression, time course (eNOS expression): sustained increase

CCCCCCCCCCCCCC(=O)O[C@@H]1[C@@H](C)[C@@]2(O)[C@@H](C=C(CO)C[C@]3(O)C(=O)C(C)=C[C@@H]23)[C@@H]2C(C)(C)[C@]12OC(C)=O [PMA, phorbol 12-myristate 13-acetate, reference compound]
eNOS levels after PKC activation (eNOS expression): time-dependent (FIG. 5C) and dose-dependent (data not shown) increase in eNOS levels; also recorded: increased eNOS levels

Cc1ccc(-c2nn(C(C)(C)C)c3ncnc(N)c23)cc1 [PP1, reference compound]
effect of signalling inhibitors on VEGF-induced eNOS expression (eNOS expression; 2 days): also blocked eNOS expression

CC(C)c1cc(/C=C(\C#N)C(=O)NCCCc2ccccc2)cc(C(C)C)c1O [SU1498, reference compound]
effect on VEGF-induced eNOS up-regulation at high concentration (eNOS expression; 100 μM, 500 pM rhVEGF, 2 days): completely blocked
effect on VEGF-induced eNOS expression, KDR tyrosine kinase inhibitor (eNOS expression; 2 days): dose-dependent prevention
effect on VEGF-induced eNOS expression, KDR tyrosine kinase inhibitor (eNOS expression; 2 days, listed as SU-149 g): dose dependent inhibition

COC[C@H]1OC(=O)c2coc3c2[C@@]1(C)C1=C(C3=O)[C@@H]2CCC(=O)[C@@]2(C)C[C@H]1OC(C)=O [Wortmannin, wortmannin, reference compound]
effect of signalling inhibitors on VEGF-induced eNOS expression (eNOS expression; 2 days): no significant effect

O=c1c(-c2ccc(O)cc2)coc2cc(O)cc(O)c12 [genistein, reference compound]
effect of signalling inhibitors on VEGF-induced eNOS expression (eNOS expression; 2 days): blocked VEGF-induced eNOS expression

CO[C@H]1[C@@H](OC)C[C@H](C)[C@@H](OC)C2=CC(=O)C=C(NC(=O)/C(C)=C/C=C\[C@H](OC)[C@@H](OC(N)=O)/C(C)=C/[C@@H]1C)C2=O [herbimycin A, reference compound]
effect of signalling inhibitors on VEGF-induced eNOS expression (eNOS expression; 2 days): blocked VEGF-induced eNOS expression

EGF: recombinant human epidermal growth factor (NSDSECPLSHDGYCLHDGVCMYIEALDKYACNCVVGYIGERCQYRDLKWWELR; Epidermal growth factor; UniProt P01133 971-1023, looked up)
eNOS expression with angiogenic factors (eNOS expression; 2 days): no significant effect

FGF: Recombinant human fibroblast growth factor (FGF) basic
eNOS expression with angiogenic factors (eNOS expression; 2 days): no significant effect

HGF: heterodimeric form of recombinant human hepatocyte growth factor
eNOS expression with angiogenic factors (eNOS expression; 2 days): capable of increasing eNOS expression

LK-VRB-2f: full length 1-165 VEGF variant, D63S/G65M/L66R
eNOS expression with KDR-specific VEGF variants (eNOS expression; 2 days): markedly up-regulated eNOS expression

LK-VRB-2s*: VEGF (1-109) variant, D63S/G65M/L66R
eNOS expression with KDR-specific VEGF variants (eNOS expression; 2 days): markedly up-regulated eNOS expression
IC50 (Flt-1 receptor [1]): > 400 nM

TGF-beta1: recombinant human transforming growth factor
eNOS expression with angiogenic factors (eNOS expression; 2 days): reduced endogenous eNOS expression

VEGF
eNOS up-regulation in PAE/FLT-1 cells (PAE/FLT-1 cells): not in FLT-1 transfected PAE (PAE/FLT) cells; also recorded: not in FLT-1 containing PAE cells
re-distribution of PKC isoforms from cytosolic to membrane fractions (PKC): rapid re-distribution
eNOS association levels of caveolin and PLC-γ (eNOS): significantly reduces; also recorded: induces dissociation
levels of Hsp90 and Hsp70 associated with eNOS (eNOS): increase the levels of Hsp90 and Hsp70 associated with eNOS; also recorded: increase association
Relative Binding Affinity KDR Receptor (KDR receptor): 1 (97 pM)
eNOS activity, acute treatment (eNOS activity; 0-60 min): time-dependent increase
eNOS activity in treated cells versus untreated control cells (eNOS activity; 2 days VEGF): about 5 fold
mean arterial pressure [2]: dose-rate dependent reduction in mean arterial pressure
angina class, angina frequency, treadmill times versus placebo [3]: trends of improvement
Relative Binding Affinity FLT-1 Receptor (Flt-1 receptor [4]; relative to Native VEGF 165): 1
IC50 (Flt-1 receptor [4]; value in brackets, read-out: Binding affinity FLT-1 Receptor): 0.037 nM
eNOS expression, time course (eNOS expression): time-dependent but transient increase; also recorded: time-dependent increase in eNOS expression
eNOS expression with KDR-specific VEGF variants (eNOS expression; 2 days): induced a similar degree of eNOS expression
peak eNOS expression (eNOS expression; 2 days (48 hours) post exposure to 500 pM VEGF): 5.5 fold
concentration giving maximal increase of eNOS (eNOS expression; dose-dependent up-regulation): 500 pM
eNOS expression with VEGF forms and receptor-selective variants (eNOS expression; listed as VEGF165): induced a similar degree of eNOS expression; also recorded: induce eNOS up-regulation

VEGF110: heparin binding domain-deficient variant made from VEGF165 by limited proteolytic digestion with plasmin
eNOS expression with KDR-specific VEGF variants (eNOS expression; 2 days): induced a similar degree of eNOS expression
eNOS expression with VEGF forms and receptor-selective variants (eNOS expression): induced a similar degree of eNOS expression; also recorded: induce eNOS up-regulation
